# Data published in patent US20230399341A1, “7-PHENYL SUBSTITUTED 2-AMINOQUINAZOLINE INHIBITORS OF HPK1” (MERCK SHARP & DOHME LLC, priority 2020, published 2023).
# Molecular target: T1, Human HPK1, catalytic domain (Homo sapiens, UniProt Q92918)
# T1 sequence (Q92918 1-346): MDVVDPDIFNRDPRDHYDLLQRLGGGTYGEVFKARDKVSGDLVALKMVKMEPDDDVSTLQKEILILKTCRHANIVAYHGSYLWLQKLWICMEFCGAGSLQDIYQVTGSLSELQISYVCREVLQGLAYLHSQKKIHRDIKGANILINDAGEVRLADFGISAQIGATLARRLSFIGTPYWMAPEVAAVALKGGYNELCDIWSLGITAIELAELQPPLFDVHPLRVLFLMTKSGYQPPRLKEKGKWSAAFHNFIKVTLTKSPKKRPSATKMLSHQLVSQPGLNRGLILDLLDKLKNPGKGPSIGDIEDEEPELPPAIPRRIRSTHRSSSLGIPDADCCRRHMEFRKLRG
# Experiment: HPK1-SLP76 TR-FRET Assay
# Format: biochemical
# Conditions: 75 pM HPK1, ATP 10 uM, SLP76 10 nM, 30 min pre-incubation, 60 min reaction
row,Structure (SMILES),IC50 [nM]
1,"Cc1c(-c2c(F)c(N)c3cnc(Nc4cc5c(cc4F)CCN(C)C5)nc3c2Cl)cnc2c1NCCO2 [Compound 2-107, (+ or −)-8-chloro-6-fluoro-N2-(6-fluoro-2-methyl-1,2,3,4-tetrahydroisoquinolin-7-yl)-7-(8-methyl-2,3-dihydro-1H-pyrido[2,3-b][1,4]oxazin-7-yl)quinazoline-2,5-diamine]",0.0862
2,"COc1cc2c(cc1Nc1ncc3ccc(-c4cccc(O)c4)cc3n1)CNCC2 [Compound 1-59, 3-{2-[(6-methoxy-1,2,3,4-tetrahydroisoquinolin-7-yl)amino]quinazolin-7-yl}phenol]",36.2
3,"Cc1ncccc1Nc1ncc2c(N)c(F)c(-c3cnc4c(c3C)NCCO4)cc2n1 [Compound 2-32, 6-fluoro-7-(8-methyl-2,3-dihydro-1H-pyrido[2,3-b][1,4]oxazin-7-yl)-N~2~- (2-methylpyridin-3-yl)quinazoline-2,5-diamine]",0.669
4,"COc1cc2c(cc1Nc1ncc3c(N)c(F)c(-c4cc5oc(=O)[nH]c5cc4C)cc3n1)CN(C)CC2 [Compound 2-49, 6-(5-amino-6-fluoro-2-((6-methoxy-2-methyl-1,2,3,4-tetrahydroisoquinolin-7-yl)amino)quinazolin-7-yl)-5-methylbenzo[d]oxazol-2(3H)-one]",10.5
5,"Cc1c(-c2cc3nc(Nc4ccc5c(c4)CN(C)CCC5)ncc3c(N)c2F)cnc2c1NCCO2 [Compound 2-117, 6-fluoro-7-(8-methyl-2,3-dihydro-1H-pyrido[2,3-b][1,4]oxazin-7-yl)-N~2~- (2-methyl-2,3,4,5-tetrahydro-1H-2-benzazepin-8-yl)quinazoline-2,5-diamine]",0.0406
6,"COc1cc2c(cc1Nc1ncc3ccc(-c4cnn(CCO)c4)cc3n1)CN(C)CC2 [Compound 1-13, 2-(4-{2-[(6-methoxy-2-methyl-1,2,3,4-tetrahydroisoquinazolin-7-yl)amino]quinazolin-7-yl}-1H-pyrazol-1-yl)ethan-1-ol]",7.7
7,"Cc1c(-c2cc3nc(Nc4ccc(C(C)S(C)(=O)=O)cc4)ncc3cc2F)cnc2c1NCCO2 (single isomer, unassigned) [Compound 1-124, (R or S)-6-fluoro-7-(8-methyl-2,3-dihydro-1H-pyrido[2,3-b][1,4]oxazin-7-yl)-N-{4-[1-(methylsulfonyl)ethyl]phenyl} quinazolin-2-amine]",0.0411
8,"COc1cc2c(cc1Nc1ncc3ccc(-c4cncc(C#N)c4)cc3n1)CNCC2 [Compound 1-36, 5-{2-[(6-methoxy-1,2,3,4-tetrahydroisoquinolin-7-yl)amino]quinazolin-7-yl}pyridine-3-carbonitrile]",182
9,"COc1cc2c(cc1Nc1ncc3c(N)c(F)c(-c4cnc5c(c4C)NCCO5)cc3n1)CN(C(C)=O)CC2 [Compound 2-12, 1-[7-{[5-amino-6-fluoro-7-(8-methyl-2,3-dihydro-1H-pyrido[2,3-b][1,4]oxazin-7-yl)quinazolin-2-yl]amino}-6-methoxy-3,4-dihydroisoquinolin-2(1H)-yl]ethan-1-one]",685
10,"Cc1c(-c2cc3nc(Nc4ccc(N5CCOC5=O)cc4)ncc3c(N)c2F)cnc2c1NCCO2 [Compound 2-67, 3-(4-{[5-amino-6-fluoro-7-(8-methyl-2,3-dihydro-1H-pyrido[2,3-b][1,4]oxazin-7-yl)quinazolin-2-yl]amino}phenyl)-1,3-oxazolidin-2-one]",0.0508
11,"COc1cc2c(cc1Nc1ncc3ccc(-c4cnn(C)c4)cc3n1)CNCC2 [Compound 1-34, N-(6-methoxy-1,2,3,4-tetrahydroisoquinolin-7-yl)-7-(1-methyl-1H-pyrazol-4-yl)quinazolin-2-amine]",1.49
12,"COc1cc2c(cc1Nc1ncc3ccc(-c4ccc(F)cc4CN)cc3n1)CN(C)CC2 [Compound 1-8, 7-[2-(aminomethyl)-4-fluorophenyl]-N-(6-methoxy-2-methyl-1,2,3,4-tetrahydroisoquinolin-7-yl)quinazolin-2-amine]",403
13,"COc1cc2c(cc1Nc1ncc3c(N)c(F)c(-c4cnc5c(c4C)NCCO5)c(Cl)c3n1)CN(C(C)C)CC2 [Compound 2-102, (+ or −)-8-chloro-6-fluoro-N~2~-[6-methoxy-2-(propan-2-yl)-1,2,3,4-tetrahydroisoquinolin-7-yl]-7-(8-methyl-2,3-dihydro-1H-pyrido[2,3-b][1,4]oxazin-7-yl)quinazoline-2,5-diamine]",0.204
14,"COc1cc2c(cc1Nc1ncc3ccc(-c4cc(F)ccc4CN)cc3n1)CN(C)CC2 [Compound 1-7, 7-[2-(aminomethyl)-5-fluorophenyl]-N-(6 methoxy-2-methyl-1,2,3,4-tetrahydroisoquinolin-7-yl)quinazolin-2-amine]",245
15,"COc1cc2c(cc1Nc1ncc3c(N)c(F)c(-c4cnc5c(c4C)NCCO5)cc3n1)CN(C)CC21CC1 [Compound 2-45, 6-fluoro-N~2~-(6′-methoxy-2′-methyl-2′,3′-dihydro-1′H-spiro[cyclopropane-1,4′-isoquinolin]-7′-yl)-7-(8-methyl-2,3-dihydro-1H-pyrido[2,3-b][1,4]oxazin-7-yl)quinazoline-2,5-diamine]",0.163
16,"COc1cc2c(cc1Nc1ncc3ccc(-c4cccc(N)c4)cc3n1)CNCC2 [Compound 1-58, 7-(3-aminophenyl)-N-(6-methoxy-1,2,3,4-tetrahydroisoquinolin-7-yl)quinazolin-2-amine]",76.2
17,"COc1cc2c(cc1Nc1ncc3ccc(-c4ccncc4)cc3n1)CNCC2 [Compound 1-46, N-(6-methoxy-1,2,3,4-tetrahydroisoquinolin-7-yl)-7-(pyridin-4-yl)quinazolin-2-amine]",59.4
18,"Cc1c(-c2cc3nc(Nc4ccc(C5CCN(C)C5=O)cc4)ncc3cc2F)cnc2c1NCCO2 (single isomer, unassigned) [Compound 1-125, (R or S)-3-(4-{[6-fluoro-7-(8-methyl-2,3-dihydro-1H-pyrido[2,3-b][1,4]oxazin-7-yl)quinazolin-2-yl]amino}phenyl)-1-methylpyrrolidin-2-one]",0.0606
19,"COc1cc2c(cc1Nc1ncc3ccc(-c4cccc(-c5cn[nH]c5)c4)cc3n1)CNCC2 [Compound 1-56, N-(6-methoxy-1,2,3,4-tetrahydroisoquinolin-7-yl)-7-[3-(1H-pyrazol-4-yl)phenyl]quinazolin-2-amine]",204

# Further lines, results first:
row,IC50 [nM],Structure (SMILES)
1,38.3,"COc1cc2c(cc1Nc1ncc3ccc(NCc4cnsn4)cc3n1)CN(C)CC2 [Compound 3-63, N~2~-(6-methoxy-2-methyl-1,2,3,4-tetrahydroisoquinolin-7-yl)-N~7-[(1,2,5-thiadiazol-3-yl)-methyl]quinazoline-2,7-diamine]"
2,0.0607,"Cc1c(-c2cc3nc(Nc4ccc5c(c4)COCC5)ncc3c(N)c2F)cnc2c1NCCO2 [Compound 2-118, N~2~-(3,4-dihydro-1H-2-benzopyran-7-yl)-6-fluoro-7-(8-methyl-2,3-dihydro-1H-pyrido[2,3-b][1,4]oxazin-7-yl)quinazoline-2,5-diamine]"
3,4.97,"COc1cc2c(cc1Nc1ncc3c(N)c(F)c(-c4cnc5c(c4C)NCCO5)c(Cl)c3n1)CN(C)CC21CC1 [Compound 2-169, 8-chloro-6-fluoro-N~2~- (6′-methoxy-2′-methyl-2′,3′-dihydro-1′H-spiro[cyclopropane-1,4′-isoquinolin]-7′-yl)-7-(8-methyl-2,3-dihydro-1H-pyrido[2,3-b][1,4]oxazin-7-yl)quinazoline-2,5-diamine]"
4,290,"COc1cc2c(cc1Nc1ncc3ccc(NCc4cc(C)n(C)n4)cc3n1)CN(C)CC2 [Compound 3-72, N~7~-[(1,5-dimethyl-1H-pyrazol-3-yl)methyl]-N~2~-(6-methoxy-2-methyl-1,2,3,4-tetra-hydroisoquinolin-7-yl)quinaz-oline-2,7-diamine]"
5,73.1,"COc1cc2c(cc1Nc1ncc3ccc(NCC4CCS(=O)(=O)C4)cc3n1)CN(C)CC2 (racemic) [Compound 3-37, (S and R)-3-1({2-[(6-methoxy-2-methyl-1,2,3,4-tetrahydroiso-quinolin-7-yl)amino]quinazolin-7-yl}amino)methyl]-1lambda~ 6~-thiolane-1,1-dione]"
6,24.6,"Cc1ccc(F)cc1-c1cc2nc(Nc3ccc(CS(C)(=O)=O)cc3)ncc2c(N)c1F [Compound 2-172, 6-fluoro-7-(5-fluoro-2-methylphenyl)-N~2~-{4-[(methylsulfonyl)methyl]phenyl}quinazoline-2,5-diamine]"
7,4.67,"COc1cc2c(cc1Nc1ncc3ccc(OCc4ccc5c(c4)CNC5)cc3n1)CN(C)CC2 [Compound 4-2, 7-[(2,3-dihydro-1H-iso-indol-5-yl)methoxy]-N-(6-methoxy-2-methyl-1,2,3,4-tetrahydroisoquinolin-7-yl)-quinazolin-2-amine]"
8,165,"COc1cc2c(cc1Nc1ncc3ccc([C@H]4CC[C@H](CN)CC4)cc3n1)CN(C)CC2 [Compound 5-2, 7-((1r,4r)-4-(aminomethyl)-cyclohexyl)-N-(6-methoxy-2-methyl-1,2,3,4-tetrahydroiso-quinolin-7-yl)quinazolin-2-amine]"
9,4.08,"COc1cc(C)ccc1Nc1ncc2c(N)c(F)c(-c3cnc4c(c3C)NCCO4)cc2n1 [Compound 2-177, 6-fluoro-N~2~-(2-methoxy-4-methylphenyl)-7-(8-methyl-2,3-dihydro-1H-pyrido[2,3-b][1,4]oxazin-7-yl)quinazoline-2,5-diamine]"
10,82.4,"COc1cc2c(cc1Nc1ncc3ccc(N4CC(CN)OC4=O)cc3n1)CN(C)CC2 (racemic) [Compound 3-11, (S and R)-5-(aminomethyl)-3-{2-[(6-methoxy-2-methyl-1,2,3,4-tetrahydroisoquinolin-7-yl)amino]quinazolin-7-yl}-1,3-oxazolidin-2-one]"
